{"source": "ChEMBL document CHEMBL1142254", "about": "“5'-Fluoro-5'-deoxyaristeromycin” (Bioorg Med Chem Lett, 2008)", "key": {"[1]": {"assay": "Cytotoxicity against rhesus monkey MA104 cells", "assay_type": "cell-based, Macaca mulatta"}, "HeLa": {"tested_on": "HeLa", "assay": "Cytotoxicity against human HeLa cells", "assay_type": "cell-based"}, "[2]": {"assay": "Cytotoxicity against human Huh7ET cells", "assay_type": "cell-based", "details": "huh-7"}, "HFF": {"tested_on": "HFF", "assay": "Cytotoxicity against human HFF cells", "assay_type": "cell-based"}, "Cowpox virus": {"tested_on": "Cowpox virus", "assay": "Antiviral activity against Cowpox virus", "assay_type": "functional, organism-based"}, "unidentified adenovirus": {"tested_on": "unidentified adenovirus", "assay": "Antiviral activity against adenovirus", "assay_type": "functional, organism-based"}, "Measles morbillivirus [3]": {"tested_on": "Measles morbillivirus", "assay": "Antiviral activity against measles virus MO6 by visual assay", "assay_type": "functional, organism-based"}, "Human alphaherpesvirus 2": {"tested_on": "Human alphaherpesvirus 2", "assay": "Antiviral activity against HSV2", "assay_type": "functional, organism-based"}, "Human alphaherpesvirus 1 [4]": {"tested_on": "Human alphaherpesvirus 1", "assay": "Antiviral activity against thymidine kinase deficient HSV1", "assay_type": "functional, organism-based"}, "Vaccinia virus": {"tested_on": "Vaccinia virus", "assay": "Antiviral activity against vaccinia virus", "assay_type": "functional, organism-based", "details": "Orthopoxvirus vaccinia"}, "Vero": {"tested_on": "Vero", "assay": "Cytotoxicity against african green monkey Vero cells", "assay_type": "cell-based", "details": "chlorocebus sabaeus"}, "Coxsackievirus B4": {"tested_on": "Coxsackievirus B4", "assay": "Antiviral activity against Coxsackie virus B4", "assay_type": "functional, organism-based"}, "[5]": {"tested_on": "Mammalian orthoreovirus 1", "assay": "Antiviral activity against Reovirus1", "assay_type": "functional, organism-based"}, "West Nile virus": {"tested_on": "West Nile virus", "assay": "Antiviral activity against West Nile virus", "assay_type": "functional, organism-based"}, "[6]": {"assay": "Cytotoxicity against african green monkey CV1 cells", "assay_type": "cell-based", "details": "chlorocebus aethiops, cv-1"}, "[7]": {"tested_on": "Vesicular stomatitis virus", "assay": "Antiviral activity against in Vesicular stomatitis virus", "assay_type": "functional, organism-based"}, "Measles morbillivirus [8]": {"tested_on": "Measles morbillivirus", "assay": "Antiviral activity against measles virus MO6 by neutral red assay", "assay_type": "functional, organism-based"}, "HEL": {"tested_on": "HEL", "assay": "Cytotoxicity against human HEL cells", "assay_type": "cell-based"}, "Feline coronavirus": {"tested_on": "Feline coronavirus", "assay": "Antiviral activity against Feline coronavirus", "assay_type": "functional, organism-based"}, "Human respirovirus 3": {"tested_on": "Human respirovirus 3", "assay": "Antiviral activity against Parainfluenza 3 virus", "assay_type": "functional, organism-based"}, "[9]": {"tested_on": "Respiratory syncytial virus", "assay": "Antiviral activity against RSV", "assay_type": "functional, organism-based"}, "Human alphaherpesvirus 1 [10]": {"tested_on": "Human alphaherpesvirus 1", "assay": "Antiviral activity against HSV1", "assay_type": "functional, organism-based"}, "Enterovirus": {"tested_on": "Enterovirus", "assay": "Antiviral activity against rhinovirus", "assay_type": "functional, organism-based"}, "Hepatitis C virus": {"tested_on": "Hepatitis C virus", "assay": "Antiviral activity against HCV", "assay_type": "functional, organism-based", "details": "Hepacivirus hominis"}, "[11]": {"assay": "Cytotoxicity against cat CRFK cells", "assay_type": "cell-based, Felis catus"}, "Punta Toro virus": {"tested_on": "Punta Toro virus", "assay": "Antiviral activity against Punta Toro virus", "assay_type": "functional, organism-based"}, "Sindbis virus": {"tested_on": "Sindbis virus", "assay": "Antiviral activity against Sindbis virus", "assay_type": "functional, organism-based"}, "A549": {"tested_on": "A549", "assay": "Cytotoxicity against human A549 cells", "assay_type": "cell-based"}, "MDCK": {"tested_on": "MDCK", "assay": "Cytotoxicity against dog MDCK cells", "assay_type": "cell-based, Canis lupus familiaris"}}, "note": "pEC50: −log10 of the molar value. Activity calls are given as the source filed them. No cut-off for these calls is given here."}
{"compound": "Nc1ncnc2c1ncn2[C@@H]1C[C@H](CF)[C@@H](O)[C@H]1O", "values": [{"measurement": "Activity", "setting": "[1]", "result": "Non-toxic"}, {"measurement": "Activity", "setting": "HeLa", "result": "Non-toxic"}, {"measurement": "Activity", "setting": "[2]", "result": "Non-toxic"}, {"measurement": "Activity", "setting": "HFF", "result": "Non-toxic"}, {"measurement": "Activity", "setting": "Cowpox virus", "result": "inactive"}, {"measurement": "Activity", "setting": "unidentified adenovirus", "result": "inactive"}, {"measurement": "pEC50", "setting": "Measles morbillivirus [3]", "result": 4.89}, {"measurement": "Activity", "setting": "Human alphaherpesvirus 2", "result": "inactive"}, {"measurement": "Activity", "setting": "Human alphaherpesvirus 1 [4]", "result": "inactive"}, {"measurement": "Activity", "setting": "Vaccinia virus", "result": "inactive"}, {"measurement": "Activity", "setting": "Vero", "result": "Non-toxic"}, {"measurement": "Activity", "setting": "Coxsackievirus B4", "result": "inactive"}, {"measurement": "Activity", "setting": "[5]", "result": "inactive"}, {"measurement": "Activity", "setting": "West Nile virus", "result": "inactive"}, {"measurement": "Activity", "setting": "[6]", "result": "Non-toxic"}, {"measurement": "Activity", "setting": "[7]", "result": "inactive"}, {"measurement": "pEC50", "setting": "Measles morbillivirus [8]", "result": 5.55}, {"measurement": "Activity", "setting": "HEL", "result": "Non-toxic"}, {"measurement": "Activity", "setting": "Feline coronavirus", "result": "inactive"}, {"measurement": "Activity", "setting": "Human respirovirus 3", "result": "inactive"}, {"measurement": "Activity", "setting": "[9]", "result": "inactive"}, {"measurement": "Activity", "setting": "Human alphaherpesvirus 1 [10]", "result": "inactive"}, {"measurement": "Activity", "setting": "Enterovirus", "result": "inactive"}, {"measurement": "Activity", "setting": "Hepatitis C virus", "result": "inactive"}, {"measurement": "Activity", "setting": "[11]", "result": "Non-toxic"}, {"measurement": "Activity", "setting": "Punta Toro virus", "result": "inactive"}, {"measurement": "Activity", "setting": "Sindbis virus", "result": "inactive"}, {"measurement": "Activity", "setting": "A549", "result": "Non-toxic"}, {"measurement": "Activity", "setting": "MDCK", "result": "Non-toxic"}]}
